Literature values in publication PMC5389743 (Investigative Ophthalmology & Visual Science, 2017).

Experiments:
[1] = test system: α-chymotrypsin–induced rabbit glaucoma model; details: 0.4% Δ^8-THC submicron emulsion, ocular hypertensive rabbits
normotensive rabbits = details: 0.4% Δ^8-THC submicron emulsion, after 2 hours

SMILES: CCCCCc1cc(O)c2c(c1)OC(C)(C)[C@@H]1CC=C(C)C[C@@H]21 [Δ^8-THC]
- Drop of IOP [1]: 6.5 mm of Hg
- Difference between the IOP with and without treatment (normotensive rabbits): 2 mm of Hg
